Measured values from ChEMBL document CHEMBL1145011 (J Med Chem, 2003).

What was measured:
[1] = in vivo; details: rat, po, 10 uM/kg
[2] = in vivo; details: rat
[3] = in vivo; details: rat, po, 10 umol/kg
[4] = in vivo; details: rat, iv, 10 umol/kg
[5] = in vivo; details: rat, po, 10 umol/kg; remark: listed apart in the source
[6] = in vivo; details: rat, plasma, iv, 10 umol/kg
[7] = Half life in monkey at intravenous dose of 25 umol/kg; assay type: ADME, organism-based; details: simiiformes, in vivo
[8] = Half life in monkey at oral dose of 25 umol/kg; assay type: ADME, organism-based; details: simiiformes, in vivo
[9] = Cmax value at oral dose of 25 umol/kg in monkey; assay type: ADME, organism-based; design: dose 25 umol/kg, route oral; details: simiiformes, in vivo
[10] = Area under curve at intravenous dose of 25 umol/kg in monkey; assay type: ADME; details: simiiformes, in vivo
[11] = Area under curve at oral dose of 25 umol/kg in monkey; assay type: ADME; details: simiiformes, in vivo
[12] = Tested for volume distribution at intravenous dose of 25 umol/kg in monkey; assay type: ADME, organism-based; details: simiiformes, in vivo, read-out: Vss
[13] = T max value at oral dose of 25 umol/kg in monkey; assay type: ADME, organism-based; details: simiiformes, in vivo
[14] = Tested for plasma clearance at intravenous dose of 25 umol/kg in monkey; assay type: ADME, organism-based
[15] = Percent oral bioavailability at dose of 25 umol/kg in monkey; assay type: ADME, organism-based; details: primates, in vivo
[16] = in vivo; details: rat, iv, 10 umol/kg; remark: listed apart in the source
[17] = in vivo; details: rat, plasma, iv, 10 umol/kg; remark: listed apart in the source
[18] = in vitro; details: human, Caco-2

`Cc1onc(NS(=O)(=O)c2ccccc2-c2ccc(-c3ncco3)cc2CN2CCC(C)(C)C2=O)c1C` gave a bioavailability [1] of 78%, a half-life [2] of 4.7 h and a Cmax [3] of 7.7 µM. It also gave a Vd [4] of 2.3 L/kg, a Tmax [5] of 0.6 h and a clearance [6] of 9.3 mL/min/kg.

For `Cc1onc(NS(=O)(=O)c2ccccc2-c2ccc(-c3ncco3)cc2N(C)C(=O)CC(C)(C)C)c1C`, the half-life [7] was 14 h, the half-life [8] was 17 h and the Cmax [9] was 16.1 µM. For the same compound, the AUC [10] was 161 µM·h, the AUC [11] was 41.5 µM·h and the Vd [12] was 0.25 L/kg. The Tmax [13] was 1.2 h, the clearance [14] was 2.7 mL/min/kg and the bioavailability [15] was 26%. The bioavailability [1] was 100%, the half-life [2] was 3.4 h and the Cmax [3] was 28 µM. It also gave a Vd [16] of 1.1 L/kg, a Tmax [5] of 0.4 h and a clearance [17] of 5.4 mL/min/kg.

`Cc1noc(NS(=O)(=O)c2ccccc2-c2ccc(-c3ncco3)cc2COCC(C)C)c1C` gave a Papp [18] of less than 3 ×10⁻⁶ cm/s.

Work on `Cc1noc(NS(=O)(=O)c2ccccc2-c2ccc(-c3ncco3)cc2/C=C\c2ccccc2)c1C` yielded a Papp [18] of 8.9 ×10⁻⁶ cm/s.

`Cc1noc(NS(=O)(=O)c2ccccc2-c2ccc(-c3ncco3)cc2Cc2ncco2)c1C` showed a Papp [18] of 14.8 ×10⁻⁶ cm/s.
